Measured values published in publication PMC4783701 (Scientific Reports, 2016).
Converted amounts (≈) assume the structure as drawn. “And” between values parts separate entries of the source, which are not always exact repeats. Equal entries are not always repeated.

What was measured:
[1] = target: PAN endonuclease (N-terminal domain of the PA subunit) (Influenza A virus, UniProt P03433); format: biochemical
[2] = test system: influenza H1N1 virus; experiment: microbe, parasite or virus in culture; format: cell-based, influenza A virus; details: for IC50: Influenza A virus, H1N1, MDCK
[3] = MTT cytotoxicity assay; format: cell-based, canine; details: dog, MDCK cells
Procedure: Selectivity index (SI) of each compound was defined as the ratio of CC50 over IC50. CC50 value was determined with MTT assay according to the manufacturer’s protocol (Invitrogen), while IC50 data was obtained by plaque reduction assay. Both assays were done in MDCK cells and values were calculated using Sigma plot 12.0 (SPSS).

[4] = test system: influenza H1N1 virus; format: cell-based, influenza A virus
[5] = test system: H1N1 virus; experiment: microbe, parasite or virus in culture; format: cell-based; details: Influenza A virus, H1N1, MDCK, 24 h
[6] = test system: H3N2 virus; format: cell-based, influenza A virus; details: MDCK, MOI 0.002, 24 h post-infection
[7] = test system: H5N1 virus; experiment: microbe, parasite or virus in culture; format: cell-based; details: Influenza A virus, H5N1, MDCK, 24 h
[8] = test system: H7N7 virus; experiment: microbe, parasite or virus in culture; format: cell-based; details: Influenza A virus, H7N7, MDCK, 24 h
[9] = test system: H7N9 virus; format: cell-based, influenza A virus; details: MDCK, MOI 0.002, 24 h post-infection
[10] = test system: H9N2 virus; experiment: microbe, parasite or virus in culture; format: cell-based; details: Influenza A virus, H9N2, MDCK, 24 h
[11] = test system: multiple subtypes of influenza virus, including H1N1, H3N2, H5N1, H7N7, H7N9, and H9N2; format: cell-based, influenza A virus; details: all tested subtypes; for inhibition of viral replication: serial-diluted compound
[12] = test system: influenza H1N1 virus; format: cell-based, influenza A virus; remark: listed apart in the source
[13] = target: influenza polymerase activity (PB1, PB2, PA, NP) (Influenza A virus, UniProt P03433); format: cell-based
[14] = target: PAN protein (Influenza A virus, UniProt P03433); experiment: biochemical; format: binding
[15] = Solubility in PBS; format: physicochemical; details: read-out: solubility limitation

## O=C1N=c2ccccc2=C1NNC1=NC(=O)/C(=C2/C(=O)Nc3ccccc32)S1 [ANA-0, (5Z)-2-[2-(2-oxoindol-3-yl)hydrazinyl]-5-(2-oxo-1H-indol-3-ylidene)-1,3-thiazol-4-one]
[1]
  IC50 compared with that of DPBA: lower IC50s
[2]
  Selectivity Index (CC50/IC50): > 500
  IC50: 800 ± 100 nM
[3]
  CC50: > 400000 nM
[4]
  reduction in supernatant viral titer: 2–3 log
[5]
  IC50: < 1000 nM
[6]
  concentration required for similar inhibition relative to H1N1 and H9N2: 5 fold and > 5 fold
[7]
  IC50: ~2500 nM
[8]
  IC50: ~2500 nM
[9]
  concentration required for similar inhibition relative to H1N1 and H9N2: 5 fold and > 5 fold
[10]
  IC50: < 1000 nM
[11]; 20 μM
  suppression of virus replication: more than 3 logs
[11]
  inhibition of viral replication: inhibited viral replication of all tested subtypes of influenza virus in a dose-dependent manner
[12]
  antiviral efficacy when added during virus absorption (-1 h) and then removed: did not exert antiviral efficacy
  intracellular and supernatant vRNA when added at 1 h p.i. and maintained: significant decrease of viral RNAs
  intracellular viral mRNA production: reduced the viral mRNA production
  vRNAs in cell lysates: subsequent decrease of vRNAs in cell lysates
[13]
  luciferase activity (viral polymerase function): dose-dependent suppression of luciferase activity
[14]
  Kd: 1100 nM
[15]
  solubility: 1000 µg/mL (≈ 2570 µM)

## O=C([O-])Cc1c[nH]c2ccc(O)cc12.[K+] [Compound 5106705]
[1]
  PAN Endonuclease Inhibition Postive: Y

## O=C1C=CC(=NS(=O)(=O)c2ccc(Cl)cc2)C=C1Cl [Compound 5158517]
[1]
  PAN Endonuclease Inhibition Postive: Y

## O=C1C=CC(=O)C(C(=CNCc2ccccc2)[N+](=O)[O-])=C1 [Compound 5261378]
[1]
  PAN Endonuclease Inhibition Postive: Y

## Nc1c(C(=O)O)cc(O)c2c1C(=O)c1ccccc1C2=O [Compound 5302115]
[1]
  PAN Endonuclease Inhibition Postive: Y
[2]
  Anti-H1N1 Positive: Y

## CN(C)c1ccc(C=C2SC(=NN=C3C(=O)Nc4ccccc43)NC2=O)cc1 [Compound 5404571]
[1]
  PAN Endonuclease Inhibition Postive: Y
[2]
  Anti-H1N1 Positive: Y

## Oc1c(Br)cc(C=NNc2nc3ccccc3s2)c(O)c1Br [Compound 5482349]
[1]
  PAN Endonuclease Inhibition Postive: Y
[2]
  Anti-H1N1 Positive: Y

## C=CCN1C(=O)C(=Cc2cccn2-c2cccc([N+](=O)[O-])c2)C(=O)NC1=S [Compound 5987504]
[1]
  PAN Endonuclease Inhibition Postive: Y
[2]
  Anti-H1N1 Positive: Y

## O=C1C(=O)c2ccccc2C(Cl)=C1Cl [Compound 6304348]
[1]
  PAN Endonuclease Inhibition Postive: Y

## Nc1c(C(=O)O)cc(O)c2c1C(=O)c1ccccc1C2=O [PA-24]
[2]
  Selectivity Index (CC50/IC50): 129
  plaque number reduction: reduce the plaque number in a dose-dependent manner
  IC50: 1400 ± 300 nM
[3]
  CC50: 180000 ± 15000 nM

## CN(C)c1ccc(/C=C2\S/C(=N\N=C3\C(=O)Nc4ccccc43)NC2=O)cc1 [PA-30]
[1]
  IC50 compared with that of DPBA: lower IC50s
[2]
  Selectivity Index (CC50/IC50): > 200
  plaque number reduction: reduce the plaque number in a dose-dependent manner
  IC50: 1500 ± 200 nM
[3]
  CC50: > 300000 nM
[4]
  reduction in supernatant viral titer: 2–3 log
[11]
  inhibition of viral replication: inhibited viral replication of all tested subtypes of influenza virus in a dose-dependent manner
[14]
  Kd: 1300 nM

## Oc1c(Br)cc(/C=N/Nc2nc3ccccc3s2)c(O)c1Br [PA-35]
[2]
  Selectivity Index (CC50/IC50): 58
  plaque number reduction: reduce the plaque number in a dose-dependent manner
  IC50: 1300 ± 500 nM
[3]
  CC50: 75000 ± 23000 nM

## C=CCN1C(=O)/C(=C\c2cccn2-c2ccc([N+](=O)[O-])cc2)C(=O)NC1=S [PA-48]
[2]
  Selectivity Index (CC50/IC50): 10
  plaque number reduction: reduce the plaque number in a dose-dependent manner
  IC50: 2000 ± 100 nM
[3]
  CC50: 20000 ± 5000 nM

## CC(=O)N[C@H]1[C@H]([C@H](O)[C@H](O)CO)OC(C(=O)O)=C[C@@H]1N=C(N)N [zanamivir, reference compound]
[12]
  intracellular and supernatant vRNA when added at 1 h p.i. and maintained: reduced the vRNA in the supernatant but not inside the cells
